Reference: patent publication US10155766B2, “Pyrazolopyrimidine antibacterial agents” (priority 2016, dated 2018)
Entries after “also recorded” stand apart in the source; their conditions may differ.

Columns and labels:
[1] = test system: Pseudomonas aeruginosa (ATCC 27853); experiment: microbe, parasite or virus in culture; assay type: cell-based; conditions: for zone of inhibition at 100 µM / zone of inhibition at 500 µM / zone of inhibition at 1000 µM: Pseudomonas aeruginosa, ATCC27853, read-out: Zone of inhibition (diameter, in millimeter) P. aeruginosa; for zone of inhibition at 100 µM: Conc. 0.1 mM; for zone of inhibition at 500 µM: Conc. 0.5 mM; for zone of inhibition at 1000 µM: Conc. 1.0 mM
[2] = test system: Burkholderia thailandensis (E 264); experiment: microbe, parasite or virus in culture; assay type: cell-based; conditions: for zone of inhibition at 100 µM / zone of inhibition at 500 µM / zone of inhibition at 1000 µM: Burkholderia thailandensis, read-out: Zone of inhibition (diameter, in millimeter) B. thailandensis; for zone of inhibition at 100 µM: Conc. 0.1 mM; for zone of inhibition at 500 µM: Conc. 0.5 mM; for zone of inhibition at 1000 µM: Conc. 1.0 mM
BtIspD = target: T1, BtIspD (Burkholderia thailandensis, UniProt Q2SWT6); assay type: binding
T1 construct: 6xHis (AVA0421 vector, 3C-cleavable) (N, cleaved yes); made in house; host or cells: E. coli BL21(DE3)R3 Rosetta Oxford
T1 sequence (Q2SWT6 1-236): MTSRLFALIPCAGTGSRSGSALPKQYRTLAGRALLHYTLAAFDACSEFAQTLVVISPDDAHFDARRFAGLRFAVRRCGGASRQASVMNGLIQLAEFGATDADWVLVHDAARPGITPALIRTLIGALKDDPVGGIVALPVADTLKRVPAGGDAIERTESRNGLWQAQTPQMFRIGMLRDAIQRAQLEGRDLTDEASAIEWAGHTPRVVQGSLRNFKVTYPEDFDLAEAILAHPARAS

BtIspE = assay type: binding, Burkholderia thailandensis

SMILES | zone of inhibition at 100 µM [1] [mm] | zone of inhibition at 500 µM [1] [mm] | zone of inhibition at 1000 µM [1] [mm] | melting point [°C] | zone of inhibition at 100 µM [2] [mm] | zone of inhibition at 500 µM [2] [mm] | zone of inhibition at 1000 µM [2] [mm] | STD-NMR binding to BtIspD (in words) (BtIspD) | change of STD binding to BtIspD upon addition of CDP (BtIspD) | concentration at which inhibitory activity against B. thailandensis is shown [2] [µg/mL] | growth inhibition of P. aeruginosa (in words) [1] | growth inhibition of B. thailandensis (in words) [2] | STD-NMR binding to BtIspE (in words) (BtIspE) | change of % STD binding signal to BtIspE after subsequent addition of CDP (BtIspE) | change of % STD binding signal to BtIspE upon addition of ADP (BtIspE)
Cn1ncc2c(NCCc3c(F)cccc3Cl)ncnc21 [Compound 26] | 0 | 11 | 19 | 195 to 196 | 0 | 13 | 21 | strongest binders | large decrease | – | – | – | – | – | –
CC(C)(C)n1ncc2c(NCc3ccc(Cl)c(Cl)c3)ncnc21 [Compound 19] | 0 | 12 | 16 | 120 to 123 | 0 | 16 | 20 | – | – | – | – | – | – | – | –
Cn1ncc2c(NCCc3ccc(Cl)cc3)ncnc21 [Compound 24] | 0 | 0 | 10 | – | 0 | 10 | 13 | – | – | – | – | – | – | – | –
CC(C)Nc1ncnc2c1cnn2C [Compound 6] | 0 | 0 | 10 | 101 to 103 | 0 | 13 | 21 | – | – | – | – | – | – | – | –
CC(C)(C)n1ncc2c(NCCO)ncnc21 [Compound 4] | 0 | 12 | 20 | 75 to 77 | 0 | 8 | 12 | – | – | – | – | – | – | – | –
Cn1ncc2c(NCCc3cccc(F)c3)ncnc21 [Compound 22] | 0 | 0 | 8 | 109 to 110 | 0 | 11 | 14 | – | – | – | – | – | – | – | –
NC[C@H]1O[C@H](O[C@H]2[C@H](O)[C@@H](O[C@H]3O[C@H](CO)[C@@H](O)[C@H](N)[C@H]3O)[C@H](N)C[C@@H]2N)[C@H](O)[C@@H](O)[C@@H]1O [Kanamycin, reference compound] | 0 | 0 | 0 | – | 6 | 22 | 30 | – | – | 48.5 | – | – | – | – | –
CCOC(=O)CNc1ncnc2c1cnn2C [Compound 5] | 0 | 0 | 13 | 141 to 142 | 0 | 8 | 12 | – | – | – | – | – | – | – | –
Cn1ncc2c(NCCc3ccc(F)cc3)ncnc21 [Compound 23] | 0 | 9 | 17 | 106 to 107 | 0 | 12 | 22 | – | – | – | – | – | – | – | –
Cn1ncc2c(NCCc3ccc(O)cc3)ncnc21 [Compound 25] | 0 | 0 | 0 | 182 to 184 | 0 | 0 | 0 | strongest binders | – | – | Activity was not detected; also recorded: did not show zone of inhibition activity | Activity was not detected; also recorded: did not show zone of inhibition activity | weaker binder | loses all binding signal entirely | no change
Cn1ncc2c(NCc3ccco3)ncnc21 [Compound 7] | 0 | 0 | 0 | 141 to 143 | 0 | 0 | 20 | – | – | – | – | – | – | – | –
C[C@H](Nc1ncnc2c1cnn2C)c1ccccc1 [Compound 10] | 0 | 8 | 14 | 201 to 203 | 0 | 11 | 19 | – | – | – | – | – | – | – | –
Cn1ncc2c(NCc3ccc(F)cc3)ncnc21 [Compound 16] | 0 | 12 | 18 | – | 0 | 9 | 18 | – | – | – | – | – | – | – | –
Cn1ncc2c(NCCc3c[nH]c4ccccc34)ncnc21 | – | – | – | 183 to 185 | – | – | – | – | – | – | – | – | – | – | –
CC(C)(C)n1ncc2c(NCCc3c(F)cccc3Cl)ncnc21 [Compound 27] | 0 | 0 | 0 | 140 to 142 | 0 | 12 | 16 | strongest binders | large decrease | – | – | – | – | – | –
Cn1ncc2c(NCc3ccc(Cl)c(Cl)c3)ncnc21 [Compound 18] | 0 | 10 | 20 | 170 to 173 | 0 | 12 | 18 | strongest binders | – | – | – | – | high % STD values | – | –
Cn1ncc2c(NCCc3ccccc3F)ncnc21 [Compound 21] | 0 | 8 | 16 | 139 to 140 | 0 | 12 | 16 | – | – | – | – | – | – | – | –
Cn1ncc2c(NCCc3ccccc3)ncnc21 [Compound 20] | 0 | 0 | 0 | 101 to 103 | 0 | 9 | 20 | – | – | – | – | – | – | – | –
CC(C)(C)n1ncc2c(NCc3cccc([N+](=O)[O-])c3)ncnc21 [Compound 15] | 0 | 13 | 17 | 135 to 137 | 0 | 12 | 16 | – | – | – | – | – | – | – | –
CC(C)(C)n1ncc2c(NCc3ccco3)ncnc21 [Compound 8] | 0 | 6 | 12 | 101 to 103 | 0 | 12 | 14 | – | – | – | – | – | – | – | –
Cn1ncc2c(NCc3cccc(F)c3)ncnc21 [Compound 14] | 0 | 10 | 15 | 176 to 177 | 0 | 6 | 11 | – | – | – | – | – | high % STD values | – | –
CC(C)(C)n1ncc2c(NCCc3c(Cl)cccc3Cl)ncnc21 [Compound 28] | 0 | 0 | 0 | 154 to 156 | 0 | 11 | 18 | – | – | – | – | – | – | – | –
Cn1ncc2c(NCc3ccccc3F)ncnc21 [Compound 13] | 0 | 12 | 18 | 184 to 185 | 0 | 8 | 13 | – | – | – | – | – | – | – | –
CC(C)(C)n1ncc2c(NCc3ccccc3)ncnc21 [Compound 11] | 0 | 0 | 0 | 158 to 160 | 0 | 12 | 18 | – | – | – | – | – | – | – | –
Cn1ncc2c(NCc3ccccc3)ncnc21 [Compound 9] | 0 | 0 | 0 | – | 0 | 0 | 12 | – | – | – | – | – | – | – | –
